How the values were obtained:
Ba/F3 (naive) cells = assay: Cell proliferation inhibition, CellTiter-Glo; type: cell-based; conditions: Mus musculus, BaF3; Ba/F3 not transduced, 72 hours
Method in brief: (§1)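 Ba/F3 lines (naive or RET-fusion-transduced, IL-3 medium) and LC-2/ad cells exposed 72 h to compound, 12 three-fold dilutions spanning 0.3 nM–50 μM final. Viability read by CellTiter-Glo luminescence, in triplicate; GI50 derived from growth ratio (%) versus control.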

[1] = system: Ba/F3 CCDC6-RET (WT) cells; assay: Cell proliferation inhibition, CellTiter-Glo; type: cell-based; conditions: BaF3/CCDC6-RET, 72 hours
Method in brief: as §1

[2] = system: Ba/F3 KIF5B-RET (V804M) cells; assay: Cell proliferation inhibition, CellTiter-Glo; type: cell-based; conditions: Mus musculus, BaF3, 72 hours
Method in brief: as §1

[3] = system: Ba/F3 KIF5B-RET (WT) cells; assay: Cell proliferation inhibition, CellTiter-Glo; type: cell-based; conditions: Mus musculus, BaF3, 72 hours
Method in brief: as §1

[4] = system: LC-2/ad cells (with CCDC6-RET gene); assay: Cell proliferation inhibition, CellTiter-Glo; type: cell-based; conditions: Homo sapiens; LC-2/ad lung cancer cell line, 72 hours
Method in brief: as §1

TT cells = assay: Cell proliferation inhibition, CellTiter-Glo; type: cell-based; conditions: Homo sapiens; TT thyroid cancer cell line, 72 hours
[5] = target: T1, ABL1(M351T)-phosphorylated (Homo sapiens, UniProt P00519, M351T); assay: ScanMAX Kinase analysis panel (DiscoverX); type: binding; conditions: read-out: adjusted percentage (% control)
T1 construct: purchased DiscoverX
Protocol: (§2) The following experiment was performed in order to evaluate the inhibitory activity of the compound according to the present invention against more enzymes. Specifically, for Examples 1 and 3 selected among the Example compounds of the present invention, the enzyme (kinase) selectivity was set to be measured by commissioning DiscoverX, and an experiment was conducted using a ScanMAX™ Kinase analysis panel. In this case, the concentration of the drug treated with the enzyme was set to 1 μM in DMSO, the adjusted percentage (% control) was determined in the same manner as in the following Equation 1, and the results are shown in the following Table 3. (Example compound−Positive control)/(Negative control−Positive control)×100 [Equation 1]
(§3) In addition, the enzyme selectivity of the present invention was determined to be active against the corresponding enzyme when the adjusted percentage was <35% (that is, less than 35%).

[6] = target: T2, ABL1(Q252H)-phosphorylated (Homo sapiens, UniProt P00519, Q252H); assay: ScanMAX Kinase analysis panel (DiscoverX); type: binding; conditions: read-out: adjusted percentage (% control)
T2 construct: purchased DiscoverX
Protocol: as §2, §3

ABL1-phosphorylated = target: T3, ABL1-phosphorylated (Homo sapiens, UniProt P00519); assay: ScanMAX Kinase analysis panel (DiscoverX); type: binding; conditions: read-out: adjusted percentage (% control)
T3 construct: purchased DiscoverX
Protocol: as §2, §3

AURKC = target: T4, AURKC (Homo sapiens, UniProt Q9UQB9); assay: ScanMAX Kinase analysis panel (DiscoverX); type: binding; conditions: read-out: adjusted percentage (% control)
T4 construct: purchased DiscoverX
T4 sequence (Q9UQB9 whole entry): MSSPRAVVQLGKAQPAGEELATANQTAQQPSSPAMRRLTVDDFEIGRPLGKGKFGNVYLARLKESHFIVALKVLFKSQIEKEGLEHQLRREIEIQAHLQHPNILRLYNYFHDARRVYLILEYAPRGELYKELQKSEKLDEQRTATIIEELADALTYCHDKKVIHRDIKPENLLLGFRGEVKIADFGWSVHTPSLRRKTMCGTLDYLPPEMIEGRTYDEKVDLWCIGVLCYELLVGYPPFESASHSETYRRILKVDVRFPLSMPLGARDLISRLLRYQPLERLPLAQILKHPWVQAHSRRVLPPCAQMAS
Protocol: as §2, §3

DAPK3 = target: T5, DAPK3 (Homo sapiens, UniProt O43293); assay: ScanMAX Kinase analysis panel (DiscoverX); type: binding; conditions: read-out: adjusted percentage (% control)
T5 construct: purchased DiscoverX
T5 sequence (O43293 whole entry): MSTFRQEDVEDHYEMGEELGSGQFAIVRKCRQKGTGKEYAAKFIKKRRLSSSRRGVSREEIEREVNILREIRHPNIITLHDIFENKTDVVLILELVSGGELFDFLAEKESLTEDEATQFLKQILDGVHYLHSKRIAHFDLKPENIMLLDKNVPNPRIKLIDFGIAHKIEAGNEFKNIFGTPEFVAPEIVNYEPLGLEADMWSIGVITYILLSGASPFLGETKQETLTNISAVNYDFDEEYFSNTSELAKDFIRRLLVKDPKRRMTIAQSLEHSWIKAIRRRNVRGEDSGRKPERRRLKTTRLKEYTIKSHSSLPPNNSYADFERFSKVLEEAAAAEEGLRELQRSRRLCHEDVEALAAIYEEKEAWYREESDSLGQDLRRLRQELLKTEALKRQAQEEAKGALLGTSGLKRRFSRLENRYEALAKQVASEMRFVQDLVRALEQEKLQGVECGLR
Protocol: as §2, §3

DDR1 = target: T6, DDR1 (Homo sapiens, UniProt Q08345); assay: ScanMAX Kinase analysis panel (DiscoverX); type: binding; conditions: read-out: adjusted percentage (% control)
T6 construct: purchased DiscoverX
T6 sequence (Q08345 19-913): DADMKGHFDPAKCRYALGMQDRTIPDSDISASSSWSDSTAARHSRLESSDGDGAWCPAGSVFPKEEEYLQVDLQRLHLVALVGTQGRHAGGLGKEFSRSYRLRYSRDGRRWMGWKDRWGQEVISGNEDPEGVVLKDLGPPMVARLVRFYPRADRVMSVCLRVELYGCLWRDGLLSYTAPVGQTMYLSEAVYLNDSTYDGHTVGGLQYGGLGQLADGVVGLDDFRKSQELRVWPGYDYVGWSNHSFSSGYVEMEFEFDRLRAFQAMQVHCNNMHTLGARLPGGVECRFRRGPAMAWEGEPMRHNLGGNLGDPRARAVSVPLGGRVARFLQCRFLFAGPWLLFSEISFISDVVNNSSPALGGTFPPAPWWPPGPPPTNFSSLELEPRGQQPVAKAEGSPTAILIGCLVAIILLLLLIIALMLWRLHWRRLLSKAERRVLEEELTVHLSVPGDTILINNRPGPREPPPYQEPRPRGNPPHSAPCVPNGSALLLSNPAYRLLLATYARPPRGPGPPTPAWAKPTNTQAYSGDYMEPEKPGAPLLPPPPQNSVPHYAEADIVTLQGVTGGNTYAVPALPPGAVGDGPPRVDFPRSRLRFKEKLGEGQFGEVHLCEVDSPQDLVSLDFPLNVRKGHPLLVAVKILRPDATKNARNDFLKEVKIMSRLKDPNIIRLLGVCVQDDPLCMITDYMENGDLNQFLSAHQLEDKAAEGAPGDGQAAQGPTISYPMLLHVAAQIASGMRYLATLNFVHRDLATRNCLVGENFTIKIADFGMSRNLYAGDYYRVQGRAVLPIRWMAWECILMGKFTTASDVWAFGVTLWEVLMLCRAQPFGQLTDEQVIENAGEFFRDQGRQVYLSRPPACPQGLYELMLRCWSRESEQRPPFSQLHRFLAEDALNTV
Protocol: as §2, §3

DLK = target: T7, DLK (Homo sapiens, UniProt Q12852); assay: ScanMAX Kinase analysis panel (DiscoverX); type: binding; conditions: read-out: adjusted percentage (% control)
T7 construct: purchased DiscoverX
T7 sequence (Q12852 whole entry): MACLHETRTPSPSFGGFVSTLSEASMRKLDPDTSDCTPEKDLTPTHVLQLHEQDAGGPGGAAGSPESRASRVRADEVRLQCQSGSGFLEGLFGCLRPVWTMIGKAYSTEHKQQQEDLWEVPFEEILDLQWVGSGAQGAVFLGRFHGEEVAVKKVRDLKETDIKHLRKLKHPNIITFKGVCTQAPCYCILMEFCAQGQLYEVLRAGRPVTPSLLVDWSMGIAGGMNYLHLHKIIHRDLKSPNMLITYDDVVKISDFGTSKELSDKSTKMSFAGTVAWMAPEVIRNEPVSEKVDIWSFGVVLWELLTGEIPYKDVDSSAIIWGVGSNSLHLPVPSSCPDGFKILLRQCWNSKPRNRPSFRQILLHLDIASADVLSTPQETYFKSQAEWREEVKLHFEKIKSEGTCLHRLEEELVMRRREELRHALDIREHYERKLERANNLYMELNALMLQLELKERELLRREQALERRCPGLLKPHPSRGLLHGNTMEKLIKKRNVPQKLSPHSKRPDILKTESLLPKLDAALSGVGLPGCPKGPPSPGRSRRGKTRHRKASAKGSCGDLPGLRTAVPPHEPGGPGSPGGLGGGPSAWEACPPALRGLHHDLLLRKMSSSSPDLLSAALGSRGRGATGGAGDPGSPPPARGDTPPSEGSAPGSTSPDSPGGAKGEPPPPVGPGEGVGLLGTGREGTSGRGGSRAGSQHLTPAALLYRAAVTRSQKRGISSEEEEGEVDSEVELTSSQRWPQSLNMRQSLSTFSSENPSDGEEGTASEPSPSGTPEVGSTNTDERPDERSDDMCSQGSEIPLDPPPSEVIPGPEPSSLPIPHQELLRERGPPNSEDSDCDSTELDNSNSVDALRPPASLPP
Protocol: as §2, §3

FLT3 = target: T8, FLT3 (Homo sapiens, UniProt P36888); assay: ScanMAX Kinase analysis panel (DiscoverX); type: binding; conditions: read-out: adjusted percentage (% control)
T8 construct: purchased DiscoverX ScanMAX Kinase analysis panel
Protocol: as §2, §3

FLT3(D835Y) = target: T9, FLT3(D835Y) (Homo sapiens, UniProt P36888, D835Y); assay: ScanMAX Kinase analysis panel (DiscoverX); type: binding; conditions: read-out: adjusted percentage (% control)
T9 construct: purchased DiscoverX ScanMAX Kinase analysis panel
Protocol: as §2, §3

FLT3(ITD) = assay: ScanMAX Kinase analysis panel (DiscoverX); type: binding; conditions: 1 μM
Protocol: as §2, §3

HCK = target: T10, HCK (Homo sapiens, UniProt P08631); assay: ScanMAX Kinase analysis panel (DiscoverX); type: binding; conditions: read-out: adjusted percentage (% control)
T10 construct: purchased DiscoverX ScanMAX Kinase analysis panel
T10 sequence (P08631 whole entry): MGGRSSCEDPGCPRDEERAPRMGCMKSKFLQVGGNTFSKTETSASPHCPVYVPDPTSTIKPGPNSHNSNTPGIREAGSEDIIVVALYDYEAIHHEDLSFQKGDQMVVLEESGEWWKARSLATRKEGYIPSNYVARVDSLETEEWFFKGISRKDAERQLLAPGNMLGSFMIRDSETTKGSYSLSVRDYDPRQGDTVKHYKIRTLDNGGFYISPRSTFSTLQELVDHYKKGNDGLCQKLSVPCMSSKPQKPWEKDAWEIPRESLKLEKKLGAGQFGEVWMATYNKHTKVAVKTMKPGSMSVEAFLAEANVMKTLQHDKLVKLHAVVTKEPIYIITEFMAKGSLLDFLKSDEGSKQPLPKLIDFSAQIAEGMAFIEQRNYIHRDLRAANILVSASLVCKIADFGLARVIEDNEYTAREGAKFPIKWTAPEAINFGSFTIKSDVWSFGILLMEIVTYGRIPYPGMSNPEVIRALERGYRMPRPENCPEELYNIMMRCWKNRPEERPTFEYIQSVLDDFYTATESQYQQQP
Protocol: as §2, §3

ICK = target: T11, ICK (Homo sapiens, UniProt Q9UPZ9); assay: ScanMAX Kinase analysis panel (DiscoverX); type: binding; conditions: read-out: adjusted percentage (% control)
T11 construct: purchased DiscoverX ScanMAX Kinase analysis panel
T11 sequence (Q9UPZ9 whole entry): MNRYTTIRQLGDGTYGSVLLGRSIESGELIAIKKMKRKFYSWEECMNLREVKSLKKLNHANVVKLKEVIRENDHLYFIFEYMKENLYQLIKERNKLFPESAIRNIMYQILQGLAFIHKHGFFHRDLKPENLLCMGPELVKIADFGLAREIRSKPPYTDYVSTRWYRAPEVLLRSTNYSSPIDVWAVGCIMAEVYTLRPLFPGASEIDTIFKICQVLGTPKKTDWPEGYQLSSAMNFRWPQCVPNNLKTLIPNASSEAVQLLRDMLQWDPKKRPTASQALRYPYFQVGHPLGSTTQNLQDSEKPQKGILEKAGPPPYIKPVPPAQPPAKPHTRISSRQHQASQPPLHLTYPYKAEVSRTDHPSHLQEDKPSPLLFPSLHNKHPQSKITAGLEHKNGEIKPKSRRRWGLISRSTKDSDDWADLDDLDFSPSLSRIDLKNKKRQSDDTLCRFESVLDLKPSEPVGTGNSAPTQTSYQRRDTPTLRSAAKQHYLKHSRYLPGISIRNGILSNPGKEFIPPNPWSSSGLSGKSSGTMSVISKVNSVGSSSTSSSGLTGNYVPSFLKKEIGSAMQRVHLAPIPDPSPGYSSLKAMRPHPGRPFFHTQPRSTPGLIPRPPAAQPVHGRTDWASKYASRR
Protocol: as §2, §3

[7] = target: T12, JAK3(JH1domain-catalytic) (Homo sapiens, UniProt P52333); assay: ScanMAX Kinase analysis panel (DiscoverX); type: binding; conditions: read-out: adjusted percentage (% control)
T12 construct: JAK3 (JH1domain-catalytic); purchased DiscoverX ScanMAX Kinase analysis panel
T12 sequence (P52333 822-1111 limits assumed): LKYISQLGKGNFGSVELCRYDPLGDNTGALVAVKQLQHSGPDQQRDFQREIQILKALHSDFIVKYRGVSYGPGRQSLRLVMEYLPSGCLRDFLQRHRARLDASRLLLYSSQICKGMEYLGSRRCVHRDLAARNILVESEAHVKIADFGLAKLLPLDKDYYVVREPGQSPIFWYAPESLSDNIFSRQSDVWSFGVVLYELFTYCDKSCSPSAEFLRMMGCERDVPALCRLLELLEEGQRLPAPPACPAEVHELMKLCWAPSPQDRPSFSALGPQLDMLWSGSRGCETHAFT
Protocol: as §2, §3

KIT(V559D) = target: T13, KIT(V559D) (Homo sapiens, UniProt P10721, V559D); assay: ScanMAX Kinase analysis panel (DiscoverX); type: binding; conditions: read-out: adjusted percentage (% control)
T13 construct: purchased DiscoverX ScanMAX Kinase analysis panel
Protocol: as §2, §3

MEK2 = target: T14, MEK2 (Homo sapiens, UniProt P36507); assay: ScanMAX Kinase analysis panel (DiscoverX); type: binding; conditions: read-out: adjusted percentage (% control)
T14 construct: purchased DiscoverX ScanMAX Kinase analysis panel
T14 sequence (P36507 whole entry): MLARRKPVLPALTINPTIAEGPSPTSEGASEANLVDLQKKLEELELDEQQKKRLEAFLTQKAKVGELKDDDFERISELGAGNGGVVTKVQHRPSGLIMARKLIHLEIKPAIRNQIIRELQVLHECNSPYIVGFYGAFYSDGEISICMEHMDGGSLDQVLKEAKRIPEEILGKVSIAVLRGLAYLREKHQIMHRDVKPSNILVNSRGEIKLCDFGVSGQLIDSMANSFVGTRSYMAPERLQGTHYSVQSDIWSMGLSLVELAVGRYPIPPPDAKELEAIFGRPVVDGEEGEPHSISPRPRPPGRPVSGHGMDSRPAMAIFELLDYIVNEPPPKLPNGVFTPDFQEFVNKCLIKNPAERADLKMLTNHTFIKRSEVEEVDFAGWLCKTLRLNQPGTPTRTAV
Protocol: as §2, §3

MST1 = target: T15, MST1 (Homo sapiens, UniProt Q13043); assay: ScanMAX Kinase analysis panel (DiscoverX); type: binding; conditions: read-out: adjusted percentage (% control)
T15 construct: purchased DiscoverX ScanMAX Kinase analysis panel
T15 sequence (Q13043 whole entry): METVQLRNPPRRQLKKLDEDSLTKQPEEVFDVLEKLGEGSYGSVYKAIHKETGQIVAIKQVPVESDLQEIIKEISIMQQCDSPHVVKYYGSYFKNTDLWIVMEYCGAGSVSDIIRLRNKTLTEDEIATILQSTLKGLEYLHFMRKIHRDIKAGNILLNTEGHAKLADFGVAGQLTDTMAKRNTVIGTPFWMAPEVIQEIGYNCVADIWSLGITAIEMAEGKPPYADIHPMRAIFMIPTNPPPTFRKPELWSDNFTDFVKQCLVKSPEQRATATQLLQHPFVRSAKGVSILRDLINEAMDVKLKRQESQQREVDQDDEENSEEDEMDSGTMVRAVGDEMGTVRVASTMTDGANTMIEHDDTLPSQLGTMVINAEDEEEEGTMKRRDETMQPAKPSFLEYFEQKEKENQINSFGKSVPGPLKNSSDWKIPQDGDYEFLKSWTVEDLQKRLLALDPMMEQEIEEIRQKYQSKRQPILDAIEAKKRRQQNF
Protocol: as §2, §3

RET(V804M) = target: T16, RET(V804M) (Homo sapiens, UniProt P07949, V804M); assay: ScanMAX Kinase analysis panel (DiscoverX); type: binding; conditions: read-out: adjusted percentage (% control)
T16 construct: purchased DiscoverX ScanMAX Kinase analysis panel
Protocol: as §2, §3

RIOK3 = target: T17, RIOK3 (Homo sapiens, UniProt O14730); assay: ScanMAX Kinase analysis panel (DiscoverX); type: binding; conditions: read-out: adjusted percentage (% control)
T17 construct: purchased DiscoverX ScanMAX Kinase analysis panel
Protocol: as §2, §3

TRKA = target: T18, TRKA (Homo sapiens, UniProt P04629); assay: ScanMAX Kinase analysis panel (DiscoverX); type: binding; conditions: read-out: adjusted percentage (% control)
T18 construct: purchased DiscoverX ScanMAX Kinase analysis panel
Protocol: as §2, §3

YSK4 = target: T19, YSK4 (Homo sapiens, UniProt Q56UN5); assay: ScanMAX Kinase analysis panel (DiscoverX); type: binding; conditions: read-out: adjusted percentage (% control)
T19 construct: purchased DiscoverX ScanMAX Kinase analysis panel
Protocol: as §2, §3

SMILES	GI50 (Ba/F3 (naive) cells)	GI50 [1]	GI50 [2]	GI50 [3]	GI50 [4]	GI50 (TT cells)	remaining binding at 1 µM [5]	remaining binding at 1 µM [6]	remaining binding at 1 µM (ABL1-phosphorylated)	remaining binding at 1 µM (AURKC)	remaining binding at 1 µM (DAPK3)	remaining binding at 1 µM (DDR1)	remaining binding at 1 µM (DLK)	remaining binding at 1 µM (FLT3)	remaining binding at 1 µM (FLT3(D835Y))	adjusted percentage (% control) (FLT3(ITD))	remaining binding at 1 µM (HCK)	remaining binding at 1 µM (ICK)	remaining binding at 1 µM [7]	remaining binding at 1 µM (KIT(V559D))	other results
COc1ccc(CN2C3CC2CN(c2ccc(-c4nc(Nc5cc(C)[nH]n5)c5occc5n4)cn2)C3)cn1 [Example 1, 2-(6-(6-((6-methoxypyridin-3-yl)methyl)-3,6-diazabicyclo[3.1.1]heptan-3-yl)pyridin-3-yl)-N-(5-methyl-1H-pyrazol-3-yl)furo[3,2-d]pyrimidin-4-amine]	4900 nM	59 nM	19 nM	19 nM	14 nM	88 nM	16%	15%	30%	15%	19%	25%	29%	1.2%	1.5%	4.9%	4.1%	33%	0.55%	34%	remaining binding at 1 µM (MEK2): 24%; remaining binding at 1 µM (MST1): 25%; remaining binding at 1 µM (RET(V804M)): 0%; remaining binding at 1 µM (RIOK3): 13%; remaining binding at 1 µM (TRKA): 0%; remaining binding at 1 µM (YSK4): 6.2%
COc1ccc(CN2C3CC2CN(c2ccc(-c4nc(Nc5cc(C)[nH]n5)c5ccccc5n4)cn2)C3)cn1 [Example 3, 2-(6-(6-((6-methoxypyridin-3-yl)methyl)-3,6-diazabicyclo [3.1.1]heptan-3-yl)pyridin-3-yl)-N-(5-methyl-1H-pyrazol-3-yl)quinazolin-4-amine]	2300 nM	51 nM	3 nM	13 nM	60 nM	30 nM	15%	17%	15%	21%	34%	12%	19%	0.55%	0.55%	1.2%	3.2%	28%	1.9%	4.2%	remaining binding at 1 µM (MEK2): 17%; remaining binding at 1 µM (MST1): 30%; remaining binding at 1 µM (RET(V804M)): 0%; remaining binding at 1 µM (RIOK3): 30%; remaining binding at 1 µM (TRKA): 0%; remaining binding at 1 µM (YSK4): 5%
